For 4 molecules, IC50, Ki and Km results are on record in PMC5585036 (Molecular pharmaceutics, 2017).

By IC50 is commonly meant the concentration that gives 50% inhibition. A low value points to higher potency. For orientation: Ki means the equilibrium dissociation constant of an inhibitor or competing ligand from its target. For orientation: Km means the concentration of substrate that gives half-maximal velocity.

The target of series [1] is T1, Monocarboxylate transporter 6 (MCT6) (Homo sapiens, UniProt O15375).
T1 sequence (O15375 1-505): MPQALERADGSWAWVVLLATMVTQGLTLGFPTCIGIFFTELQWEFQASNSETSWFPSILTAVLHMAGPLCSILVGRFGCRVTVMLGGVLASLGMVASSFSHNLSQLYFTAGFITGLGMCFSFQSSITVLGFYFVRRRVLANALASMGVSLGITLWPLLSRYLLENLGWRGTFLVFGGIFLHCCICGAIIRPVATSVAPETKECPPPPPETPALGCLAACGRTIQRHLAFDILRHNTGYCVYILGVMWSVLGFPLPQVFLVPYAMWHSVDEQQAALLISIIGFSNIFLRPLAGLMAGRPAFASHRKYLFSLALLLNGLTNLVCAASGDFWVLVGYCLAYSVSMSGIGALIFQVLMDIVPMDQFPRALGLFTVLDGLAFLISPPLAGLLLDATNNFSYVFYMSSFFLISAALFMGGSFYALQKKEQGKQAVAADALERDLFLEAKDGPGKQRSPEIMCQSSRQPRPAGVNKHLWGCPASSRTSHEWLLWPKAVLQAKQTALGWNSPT
The class given is cell-based.

Series [2] concerns the target T1, Monocarboxylate transporter 6 (MCT6). Put plainly: inhibition of [3H]bumetanide uptake in MCT6-expressing oocytes. The class given is cell-based.
Substrate in series [3]: CCCCNc1cc(C(=O)O)cc(S(N)(=O)=O)c1Oc1ccccc1
The series can be described thus: radiolabeled uptake in MCT6-expressing versus water-injected oocytes. The class given is cell-based, Homo sapiens.

In series [1], `O=c1c(O)c(-c2ccc(O)cc2O)oc2cc(O)cc(O)c12` [morin] showed an IC50 of 33.1 ± 3.29 µM.

`O=C(CCc1ccc(O)cc1)c1c(O)cc(O)cc1O` [phloretin]: in series [2], the affinity corresponds to a Ki of 22.8 ± 6.95 µM.

In series [1], `O=c1c(O)c(-c2ccc(O)c(O)c2)oc2cc(O)cc(O)c12` [quercetin] displayed an IC50 of 25.3 ± 3.36 µM.

B1: Monocarboxylate transporter 6 (MCT6) (Homo sapiens) (protein)
chain: T1 sequence (O15375 1-505)
B1: the Km in series [3] was determined as 60.5 ± 14.1 µM.
